Source: US20210255193A1, “LYSINE REACTIVE PROBES AND USES THEREOF” (The Scripps Research Institute, priority 2017, published 2021)

What was measured:
Test in all cases: competitive isoTOP-ABPP
Type in all cases: binding
[1] = molecular target: T1, G6PD Glucose-6-phosphate 1-dehydrogenase (Homo sapiens, UniProt P11413); settings: for isoTOP-ABPP ratio (R) at liganded lysine P11413_K171 / R value (DMSO/fragment) for probe 1 labeling / isoTOP-ABPP reactivity ratio at lysine P11413_K171: 50 uM, in vitro; for isoTOP-ABPP ratio (R) at liganded lysine P11413_K171: sol, 231; for R value (DMSO/fragment) for probe 1 labeling: P11413_K171; for R value (DMSO/fragment) for probe 1 labeling / isoTOP-ABPP reactivity ratio at lysine P11413_K171: 231 sol
T1 construct: isoTOP-ABPP experiments performed in cell lysates (in vitro); endogenous in cells; host or cells: MDA-MB-231 soluble lysate
T1 sequence (P11413 whole entry, the tested form may be a part): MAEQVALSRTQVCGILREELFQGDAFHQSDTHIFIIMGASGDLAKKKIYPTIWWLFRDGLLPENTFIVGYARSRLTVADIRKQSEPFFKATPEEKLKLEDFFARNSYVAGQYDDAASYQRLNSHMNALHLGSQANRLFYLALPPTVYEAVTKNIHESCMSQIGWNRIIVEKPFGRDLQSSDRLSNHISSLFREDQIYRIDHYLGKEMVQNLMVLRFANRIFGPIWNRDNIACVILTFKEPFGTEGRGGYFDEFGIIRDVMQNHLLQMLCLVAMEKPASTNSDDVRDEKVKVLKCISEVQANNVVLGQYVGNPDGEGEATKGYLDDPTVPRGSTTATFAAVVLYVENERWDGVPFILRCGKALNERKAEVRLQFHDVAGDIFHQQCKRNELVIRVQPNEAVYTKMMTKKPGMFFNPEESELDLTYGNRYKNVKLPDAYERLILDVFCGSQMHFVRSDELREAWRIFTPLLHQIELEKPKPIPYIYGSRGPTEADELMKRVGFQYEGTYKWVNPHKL
Method in brief: (§1)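 Cell lysate (0.5 ml) was pre-treated with fragment, 50 μM for activated esters or 100 μM for guanidinylating agents, versus DMSO, then labeled 1 h at ambient temperature with 0.1 mM STP-alkyne. Light/heavy TEV tags attached by CuAAC; R = DMSO/compound MS1 peak-area ratio, median per lysine.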

[2] = molecular target: T2, GSTT2B Glutathione S-transferase theta-2B (Homo sapiens, UniProt P0CG30); settings: for isoTOP-ABPP ratio (R) at liganded lysine P0CG30_K53 / R value (DMSO/fragment) for probe 1 labeling / isoTOP-ABPP reactivity ratio at lysine P0CG30_K53: 50 uM, in vitro; for isoTOP-ABPP ratio (R) at liganded lysine P0CG30_K53: sol, 231; for R value (DMSO/fragment) for probe 1 labeling: P0CG30_K53; for R value (DMSO/fragment) for probe 1 labeling / isoTOP-ABPP reactivity ratio at lysine P0CG30_K53: 231 sol
T2 construct: isoTOP-ABPP experiments performed in cell lysates (in vitro); endogenous in cells; host or cells: MDA-MB-231 soluble lysate
T2 sequence (P0CG30 1-244): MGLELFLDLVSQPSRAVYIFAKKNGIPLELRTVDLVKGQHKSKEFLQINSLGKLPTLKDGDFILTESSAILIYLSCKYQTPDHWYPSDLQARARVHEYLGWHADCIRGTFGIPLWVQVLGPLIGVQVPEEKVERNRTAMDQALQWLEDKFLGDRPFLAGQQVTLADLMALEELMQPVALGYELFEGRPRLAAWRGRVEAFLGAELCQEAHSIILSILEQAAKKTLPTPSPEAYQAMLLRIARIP
Method in brief: as §1

[3] = molecular target: T3, KIAA1967 DBIRD complex subunit KIAA1967 (Homo sapiens, UniProt Q8N163); settings: for isoTOP-ABPP ratio (R) at liganded lysine Q8N163_K97 / isoTOP-ABPP ratio (R) at liganded lysine Q8N163_K112 / R value (DMSO/fragment) for probe 1 labeling / isoTOP-ABPP reactivity ratio at lysine Q8N163_K97 / isoTOP-ABPP reactivity ratio at lysine Q8N163_K112: 50 uM, in vitro; for isoTOP-ABPP ratio (R) at liganded lysine Q8N163_K97 / isoTOP-ABPP ratio (R) at liganded lysine Q8N163_K112: sol, 231; for R value (DMSO/fragment) for probe 1 labeling / isoTOP-ABPP reactivity ratio at lysine Q8N163_K97 / isoTOP-ABPP reactivity ratio at lysine Q8N163_K112: 231 sol
T3 construct: isoTOP-ABPP experiments performed in cell lysates (in vitro); endogenous in cells; host or cells: soluble proteome of human cancer cell lines (MDA-MB-231; Ramos and Jurkat also prepared)
T3 sequence (Q8N163 whole entry, the tested form may be a part, one chain of several): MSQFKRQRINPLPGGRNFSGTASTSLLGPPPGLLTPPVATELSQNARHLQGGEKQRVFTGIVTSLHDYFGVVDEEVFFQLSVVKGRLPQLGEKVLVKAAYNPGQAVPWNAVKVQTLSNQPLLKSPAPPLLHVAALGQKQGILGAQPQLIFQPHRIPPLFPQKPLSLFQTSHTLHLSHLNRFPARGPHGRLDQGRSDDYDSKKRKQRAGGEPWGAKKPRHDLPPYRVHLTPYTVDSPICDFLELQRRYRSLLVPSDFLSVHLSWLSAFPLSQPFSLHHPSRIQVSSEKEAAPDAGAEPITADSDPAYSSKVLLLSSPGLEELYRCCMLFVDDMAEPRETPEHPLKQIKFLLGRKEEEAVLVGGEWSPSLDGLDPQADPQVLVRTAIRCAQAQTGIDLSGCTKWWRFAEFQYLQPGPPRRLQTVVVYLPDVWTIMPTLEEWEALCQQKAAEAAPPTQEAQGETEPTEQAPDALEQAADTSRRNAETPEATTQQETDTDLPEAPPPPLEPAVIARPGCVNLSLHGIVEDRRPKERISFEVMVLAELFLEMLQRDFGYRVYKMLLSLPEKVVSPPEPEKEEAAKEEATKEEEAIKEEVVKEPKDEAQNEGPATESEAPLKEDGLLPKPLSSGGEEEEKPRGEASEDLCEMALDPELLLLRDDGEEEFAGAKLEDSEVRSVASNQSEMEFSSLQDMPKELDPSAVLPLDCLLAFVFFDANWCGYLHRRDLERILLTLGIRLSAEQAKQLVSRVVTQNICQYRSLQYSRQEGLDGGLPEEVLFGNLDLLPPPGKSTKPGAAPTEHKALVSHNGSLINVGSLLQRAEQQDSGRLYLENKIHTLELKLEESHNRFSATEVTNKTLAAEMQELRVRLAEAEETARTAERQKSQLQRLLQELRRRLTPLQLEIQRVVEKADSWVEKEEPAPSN
Method in brief: as §1

[4] = molecular target: T4, PFKM 6-phosphofructokinase, muscle type (Homo sapiens, UniProt P08237); settings: for isoTOP-ABPP ratio (R) at liganded lysine P08237_K678 / R value (DMSO/fragment) for probe 1 labeling / isoTOP-ABPP reactivity ratio at lysine P08237_K678: 50 uM, in vitro; for isoTOP-ABPP ratio (R) at liganded lysine P08237_K678: sol, 231; for R value (DMSO/fragment) for probe 1 labeling: P08237_K678; for R value (DMSO/fragment) for probe 1 labeling / isoTOP-ABPP reactivity ratio at lysine P08237_K678: 231 sol
T4 construct: isoTOP-ABPP experiments performed in cell lysates (in vitro); endogenous in cells; host or cells: MDA-MB-231 soluble lysate
T4 sequence (P08237 1-780): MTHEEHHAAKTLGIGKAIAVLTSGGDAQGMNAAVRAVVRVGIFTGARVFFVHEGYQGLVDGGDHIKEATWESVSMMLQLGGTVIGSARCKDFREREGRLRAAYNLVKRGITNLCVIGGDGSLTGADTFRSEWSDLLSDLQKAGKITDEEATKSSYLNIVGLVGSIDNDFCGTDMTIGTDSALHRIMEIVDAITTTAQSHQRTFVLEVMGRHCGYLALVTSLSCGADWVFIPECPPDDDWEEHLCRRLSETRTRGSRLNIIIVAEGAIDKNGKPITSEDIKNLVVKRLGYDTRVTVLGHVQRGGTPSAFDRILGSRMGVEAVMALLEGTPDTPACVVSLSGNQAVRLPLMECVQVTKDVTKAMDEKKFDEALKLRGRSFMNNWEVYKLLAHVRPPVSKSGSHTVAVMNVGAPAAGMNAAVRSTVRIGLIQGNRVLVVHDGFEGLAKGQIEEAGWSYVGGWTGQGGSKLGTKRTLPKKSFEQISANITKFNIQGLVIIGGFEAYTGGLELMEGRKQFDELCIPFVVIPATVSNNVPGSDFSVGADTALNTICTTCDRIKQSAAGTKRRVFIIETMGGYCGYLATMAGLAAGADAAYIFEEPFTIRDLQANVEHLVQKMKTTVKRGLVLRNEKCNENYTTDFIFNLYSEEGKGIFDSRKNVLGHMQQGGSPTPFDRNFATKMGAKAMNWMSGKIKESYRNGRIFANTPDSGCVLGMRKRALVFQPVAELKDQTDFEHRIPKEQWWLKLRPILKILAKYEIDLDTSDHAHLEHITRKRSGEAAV
Method in brief: as §1

## N#Cc1ccc(C(=O)Oc2ccc([N+](=O)[O-])cc2[N+](=O)[O-])cc1 [fragment 44, 2,4-Dinitrophenyl 4-cyanobenzoate]
[1]; 50 uM_231_sol_in vitro
  isoTOP-ABPP ratio, lysine P11413_K171: 1.3
[2]; 50 uM_231_sol_in vitro
  isoTOP-ABPP ratio, lysine P0CG30_K53: 0.6
[3]; 50 uM_231_sol_in vitro
  isoTOP-ABPP ratio, lysine Q8N163_K97: 0.8
  isoTOP-ABPP ratio, lysine Q8N163_K112: 1.0
[4]; 50 uM_231_sol_in vitro
  isoTOP-ABPP ratio, lysine P08237_K678: 1.9

## O=C(Oc1ccc([N+](=O)[O-])cc1[N+](=O)[O-])c1ccc(-c2ccccc2)cc1 [fragment 37, 2,4-Dinitrophenyl [1,1′-biphenyl]-4-carboxylate]
[1]
  isoTOP-ABPP ratio (R) at liganded lysine P11413_K171: 0.9
[2]
  isoTOP-ABPP ratio (R) at liganded lysine P0CG30_K53: 0.7
[3]
  isoTOP-ABPP ratio (R) at liganded lysine Q8N163_K97: 1.0
  isoTOP-ABPP ratio (R) at liganded lysine Q8N163_K112: 1.1
[4]
  isoTOP-ABPP ratio (R) at liganded lysine P08237_K678: 1.0

## O=C(CCc1ccc2c(c1)OCO2)Oc1ccc([N+](=O)[O-])cc1[N+](=O)[O-] [fragment 45, 2,4-Dinitrophenyl 3-(benzo[d][1,3]dioxol-5-yl)propanoate]
[1]; 50 uM_231_sol_in vitro
  isoTOP-ABPP ratio, lysine P11413_K171: 1.1
[2]; 50 uM_231_sol_in vitro
  isoTOP-ABPP ratio, lysine P0CG30_K53: 0.5
[3]; 50 uM_231_sol_in vitro
  isoTOP-ABPP ratio, lysine Q8N163_K97: 0.8
  isoTOP-ABPP ratio, lysine Q8N163_K112: 1.2
[4]; 50 uM_231_sol_in vitro
  isoTOP-ABPP ratio, lysine P08237_K678: 4.8

## COC(=O)NC(=NC(=O)OCC1c2ccccc2-c2ccccc21)n1cccn1 [fragment 49, N-Methoxycarbonyl-N′-9-fluorenylmethoxycarbonyl-pyrazole-1-carboxamidine]
[1]; 100 uM_231_sol_in vitro
  isoTOP-ABPP ratio, lysine P11413_K171: 1.2
[2]; 100 uM_231_sol_in vitro
  isoTOP-ABPP ratio, lysine P0CG30_K53: 3.1
[3]; 100 uM_231_sol_in vitro
  isoTOP-ABPP ratio, lysine Q8N163_K97: 9.4
  isoTOP-ABPP ratio, lysine Q8N163_K112: 20.0
[4]; 100 uM_231_sol_in vitro
  isoTOP-ABPP ratio, lysine P08237_K678: 5.4

## O=C(Oc1c(F)c(F)c(F)c(F)c1F)C(c1ccccc1)c1ccccc1 [fragment 20, Pentafluorophenyl 2,2-diphenylacetate]
[1]
  R value (DMSO/fragment) for probe 1 labeling: 0.7
[2]
  R value (DMSO/fragment) for probe 1 labeling: 1.0
[3]; Q8N163_K97
  R value (DMSO/fragment) for probe 1 labeling: 0.9
[3]; Q8N163_K112
  R value (DMSO/fragment) for probe 1 labeling: 1.0
[4]
  R value (DMSO/fragment) for probe 1 labeling: 1.4

## O=C(Oc1ccc([N+](=O)[O-])cc1[N+](=O)[O-])c1ccc2ccccc2n1 [fragment 35, 2,4-Dinitrophenyl quinoline-2-carboxylate]
[1]
  isoTOP-ABPP ratio (R) at liganded lysine P11413_K171: 1.7
[2]
  isoTOP-ABPP ratio (R) at liganded lysine P0CG30_K53: 4.1
[3]
  isoTOP-ABPP ratio (R) at liganded lysine Q8N163_K97: 0.8
[4]
  isoTOP-ABPP ratio (R) at liganded lysine P08237_K678: 1.2

## CCn1cc(C(=O)Oc2c(F)c(F)c(F)c(F)c2F)c(=O)c2ccc(C)nc21 [fragment 28, Pentafluorophenyl 1-ethyl-7-methyl-4-oxo-1,4-dihydro-1,8-naphthyridine-3-carboxylate]
[1]
  isoTOP-ABPP reactivity ratio at lysine P11413_K171: 0.9
[2]
  isoTOP-ABPP reactivity ratio at lysine P0CG30_K53: 1.0
[3]
  isoTOP-ABPP reactivity ratio at lysine Q8N163_K97: 0.9
  isoTOP-ABPP reactivity ratio at lysine Q8N163_K112: 1.1
[4]
  isoTOP-ABPP reactivity ratio at lysine P08237_K678: 1.3

## O=C(Oc1c(F)c(F)c(F)c(F)c1F)c1cc(C(F)(F)F)cc(C(F)(F)F)c1 [fragment 21, Pentafluorophenyl 3,5-bis(trifluoromethyl)benzoate]
[1]
  R value (DMSO/fragment) for probe 1 labeling: 0.8
[2]
  R value (DMSO/fragment) for probe 1 labeling: 0.9
[3]; Q8N163_K97
  R value (DMSO/fragment) for probe 1 labeling: 0.7
[3]; Q8N163_K112
  R value (DMSO/fragment) for probe 1 labeling: 1.0
[4]
  R value (DMSO/fragment) for probe 1 labeling: 0.9

## CC(C)(C)OC(=O)NCCCC(=O)Oc1ccc([N+](=O)[O-])cc1[N+](=O)[O-] [fragment 41, 2,4-Dinitrophenyl 4-((tert-butoxycarbonyl)amino)butanoate]
[1]
  isoTOP-ABPP ratio (R) at liganded lysine P11413_K171: 1.0
[2]
  isoTOP-ABPP ratio (R) at liganded lysine P0CG30_K53: 0.5
[3]
  isoTOP-ABPP ratio (R) at liganded lysine Q8N163_K97: 1.0
  isoTOP-ABPP ratio (R) at liganded lysine Q8N163_K112: 1.3
[4]
  isoTOP-ABPP ratio (R) at liganded lysine P08237_K678: 2.0

## O=C(Oc1c(F)c(F)c(F)c(F)c1F)C1CCN(C(=O)OCc2ccccc2)CC1 [fragment 24, 1-Benzyl 4-(pentafluorophenyl) piperidine-1,4-dicarboxylate]
[1]
  isoTOP-ABPP reactivity ratio at lysine P11413_K171: 0.9
[2]
  isoTOP-ABPP reactivity ratio at lysine P0CG30_K53: 1.0
[3]
  isoTOP-ABPP reactivity ratio at lysine Q8N163_K97: 0.9
  isoTOP-ABPP reactivity ratio at lysine Q8N163_K112: 1.0
[4]
  isoTOP-ABPP reactivity ratio at lysine P08237_K678: 1.1

## O=C(Oc1c(F)c(F)c(F)c(F)c1F)c1ccc2ccccc2n1 [fragment 25, Pentafluorophenyl quinoline-2-carboxylate]
[1]
  isoTOP-ABPP reactivity ratio at lysine P11413_K171: 0.8
[2]
  isoTOP-ABPP reactivity ratio at lysine P0CG30_K53: 1.0
[3]
  isoTOP-ABPP reactivity ratio at lysine Q8N163_K97: 0.7
  isoTOP-ABPP reactivity ratio at lysine Q8N163_K112: 1.1
[4]
  isoTOP-ABPP reactivity ratio at lysine P08237_K678: 1.3

## Cn1cc(CC(=O)Oc2ccc([N+](=O)[O-])cc2[N+](=O)[O-])c2ccccc21 [fragment 32, 2,4-Dinitrophenyl 2-(1-methyl-1H-indol-3-yl)acetate]
[1]
  isoTOP-ABPP reactivity ratio at lysine P11413_K171: 0.9
[2]
  isoTOP-ABPP reactivity ratio at lysine P0CG30_K53: 0.8
[3]
  isoTOP-ABPP reactivity ratio at lysine Q8N163_K97: 1.1
  isoTOP-ABPP reactivity ratio at lysine Q8N163_K112: 1.2
[4]
  isoTOP-ABPP reactivity ratio at lysine P08237_K678: 15.4

## COc1cc(CCC(=O)Oc2c(F)c(F)c(F)c(F)c2F)cc(OC)c1OC [fragment 23, Pentafluorophenyl 3-(3,4,5-trimethoxyphenyl)propanoate]
[1]
  R value (DMSO/fragment) for probe 1 labeling: 2.1
[2]
  R value (DMSO/fragment) for probe 1 labeling: 0.9
[3]; Q8N163_K97
  R value (DMSO/fragment) for probe 1 labeling: 0.8
[3]; Q8N163_K112
  R value (DMSO/fragment) for probe 1 labeling: 1.1
[4]
  R value (DMSO/fragment) for probe 1 labeling: 1.0

## O=C(Oc1ccc([N+](=O)[O-])cc1[N+](=O)[O-])c1ccc(Oc2ccccc2)cc1 [fragment 39, 2,4-Dinitrophenyl 4-phenoxybenzoate]
[1]
  isoTOP-ABPP ratio (R) at liganded lysine P11413_K171: 1.1
[2]
  isoTOP-ABPP ratio (R) at liganded lysine P0CG30_K53: 0.7
[3]
  isoTOP-ABPP ratio (R) at liganded lysine Q8N163_K97: 0.9
  isoTOP-ABPP ratio (R) at liganded lysine Q8N163_K112: 1.1
[4]
  isoTOP-ABPP ratio (R) at liganded lysine P08237_K678: 1.0
